What was measured:
[1] = test system: patients with solid tumors or lymphomas; settings: QD 21/28-day schedule, Japanese phase I; cited from earlier work
[2] = test system: macrophage inhibitory cytokine-1 (MIC-1) serum levels; assay: Serum MIC-1 (GDF-15) ELISA, pharmacodynamic biomarker; type: in vivo, human
Procedure: To investigate biomarkers that could be potentially linked to the milademetan mechanism of action, blood, bone marrow, and serum were collected. TP53 tumor genotyping was done using bone marrow and blood samples collected before milademetan administration and at the end of treatment. TP53 genomic status was determined using a targeted next-generation sequencing following the reference human genome sequence (hg19). QIAamp® DSP FFPE Kit (Qiagen, Hilden, Germany) was used to extract DNA. Quantified DNA samples were processed by polymerase chain reaction (PCR) amplification using custom primer sets of all 11 TP53 exons. Libraries were prepared from purified PCR pools using Illumina TruSeq kits™ (Illumina, San Diego, CA, USA) and analyzed using the MiSeq platform™ (Illumina). Raw reads were aligned against hg19, and data sets were analyzed using a program developed in-house for genomic aberrations (i.e., mutations, deletions, and insertions) detection. Quantikine® ELISA Human GDF-15 immunoassay (R&D Systems, Inc., Minneapolis, MN, USA), employing the quantitative sandwich enzyme immunoassay technique, was used to determine serum MIC-1, also known as growth and differentiation factor-15 (GDF-15). […] In addition to descriptive statistics, the geometric mean and geometric coefficient of variation were used to describe the PK parameters. All analyses were conducted using SAS® software (version 9.4; SAS Institute Inc., Cary, NC, USA). The time courses of mean plasma milademetan concentrations on days 1 and 14 of cycle 1 (linear scale) in the QD 14/28-day schedule were used for pharmacokinetic analysis. The best response was measured as CR, CRh, CRi, or PR. For efficacy analysis, a waterfall plot of the best percent change from baseline blast count in bone marrow aspirate on the QD 14/28-day schedule was drawn to assess the blast count reduction. In addition, line plots of individual serum MIC-1 levels were drawn in the QD 14/28-day schedule for the pharmacodynamics analysis set.

Platelet = test system: Platelet; parameters: species or system human; settings: in vivo
Excerpt: Patients were followed up until the AEs resolved.

[3] = test system: R/R AML (blast count in bone marrow aspirate); assay: Efficacy assessment: best response and bone marrow blast count; type: in vivo, human; settings: for Best response: Not applicable: SD < 3 months was deemed not applicable
Excerpt: Bone marrow and peripheral blood results were used to assess the antitumor effect of milademetan. AML response criteria were defined as shown in Supplementary Table 1. A morphologic leukemia-free state (MLFS) was defined as bone marrow blasts < 5% in the absence of blasts with Auer rods and the absence of extramedullary leukemia. The presence/absence of hematological recovery or blood transfusion was not considered. Stable disease (SD) was defined as an absence of CR, CR with incomplete hematologic recovery (CRi) or partial hematologic recovery (CRh), partial remission (PR), or MLFS, provided that the criteria for the progressive disease were not met. SD had to last at least 3 months (assessed as SD more than thrice in a row) after initiating milademetan treatment. SD < 3 months was deemed not applicable. The best-measured response was defined as the best overall response (all time points after the start of study treatment until the end of treatment). The composite CR (CRc) duration was defined as the time between when the criteria for […] first met and when a relapse was first confirmed. In addition to descriptive statistics, the geometric mean and geometric coefficient of variation were used to describe the PK parameters. All analyses were conducted using SAS® software (version 9.4; SAS Institute Inc., Cary, NC, USA). The time courses of mean plasma milademetan concentrations on days 1 and 14 of cycle 1 (linear scale) in the QD 14/28-day schedule were used for pharmacokinetic analysis. The best response was measured as CR, CRh, CRi, or PR. For efficacy analysis, a waterfall plot of the best percent change from baseline blast count in bone marrow aspirate on the QD 14/28-day schedule was drawn to assess the blast count reduction. In addition, line plots of individual serum MIC-1 levels were drawn in the QD 14/28-day schedule for the pharmacodynamics analysis set.

tumor cells = test system: tumor cells; parameters: method as in PMID 31310659, PMID 30724592; settings: in vitro studies; cited from earlier work

## CC1(C)CCC2(CC1)N[C@@H](C(=O)N[C@@H]1CC[C@@H](C(N)=O)OC1)[C@H](c1ccnc(Cl)c1F)[C@]21C(=O)Nc2cc(Cl)ccc21 [milademetan]
[1]
  Maximum tolerated dose (MTD): 90 mg
[2]; all cohorts, after administration
  Mean serum MIC-1 levels vs baseline: increased from baseline in all cohorts
[2]; in vivo
  Peak MIC-1 levels, 120- and 160-mg cohorts vs 90-mg cohort: tended to be higher
[2]; most patients
  Time of peak serum MIC-1 level: day 8 or 14 of cycle 1
Platelet
  Mean platelet count vs baseline: decreased from the baseline in all cohorts
[3]; 90 mg/day (n = 4)
  Best response: Morphologic leukemia-free state: 0 (0.0) n, %
  Best response: Progressive disease: 1 (25.0) n, %
  Best response: Stable disease: 1 (25.0) n, %
  Best response: Not applicable: 2 (50.0) n, %
[3]; 120 mg/day (n = 5)
  Best response: Morphologic leukemia-free state: 1 (20.0) n, %
  Best response: Progressive disease: 1 (20.0) n, %
  Best response: Stable disease: 0 (0.0) n, %
  Best response: Not applicable: 3 (60.0) n, %
[3]; 160 mg/day (n = 3)
  Best response: Morphologic leukemia-free state: 1 (33.3) n, %
  Best response: Progressive disease: 0 (0.0) n, %
  Best response: Stable disease: 0 (0.0) n, %
  Best response: Not applicable: 2 (66.7) n, %
[3]; 12 patients
  Patients with a ≥ 50% reduction in baseline blast count in the bone marrow aspirate: 33.3%
[3]; 12 patients, 90, 120 or 160 mg
  CR, CRh, CRi, or PR: None of the patients
[3]; 12 patients, TP53 wild at baseline
  MLFS, patients: 16.7%
[3]; Total (n = 12)
  Best response: Morphologic leukemia-free state: 2 (16.7) n, %
  Best response: Progressive disease: 2 (16.7) n, %
  Best response: Stable disease: 1 (8.3) n, %
  Best response: Not applicable: 7 (58.3) n, %
Tumor cells
  Antitumor effect in vitro: p53 status-dependent antitumor effect

Source: article PMC9813109, “Phase I dose-escalation study of milademetan in patients with relapsed or refractory acute myeloid leukemia” (International Journal of Hematology, 2022)
